Drawing on US20190175744A1, “INSULIN-INCRETIN CONJUGATES” (Merck Sharp & Dohme Corp., priority 2016, published 2019), this text covers EC50 and GCGR/GLP1R ratio for nine compounds.

Where two headings read alike, the source gives them in different places. Non-standard residues stand in square brackets, D forms with d. Residues, ends and D or L forms follow the SMILES beside them. Lys(N3) = [N-]=[N+]=NCCCC[C@H](N)C(=O)O; Aib = CC(C)(N)C(=O)O A value given as a limit tells only on which side of the number the result lay.

One experiment addresses T1, human GCGR (Homo sapiens, UniProt P47871).
T1 construct: expressed in transfected cells; grown with Blasticidin and Hygromycin
In words: cAMP activity assay, cells expressing human GCGR.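 On all read-outs here: cAMP production read by luminescence after one hour of peptide exposure at room temperature, EC50 from logistic curve fit, native glucagon and GLP-1 as control peptides.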 The format is cell-based. As to conditions: for GCGR/GLP1R ratio: Table 5, ratio of hGCGR EC50 to hGLP1R EC50.

For another experiment, the target named is human GLP1R (Homo sapiens, UniProt P43220). Briefly: cAMP activity assay, cells expressing human GLP1R. It counts as cell-based.
human GLP1R, sequence (P43220 24-463): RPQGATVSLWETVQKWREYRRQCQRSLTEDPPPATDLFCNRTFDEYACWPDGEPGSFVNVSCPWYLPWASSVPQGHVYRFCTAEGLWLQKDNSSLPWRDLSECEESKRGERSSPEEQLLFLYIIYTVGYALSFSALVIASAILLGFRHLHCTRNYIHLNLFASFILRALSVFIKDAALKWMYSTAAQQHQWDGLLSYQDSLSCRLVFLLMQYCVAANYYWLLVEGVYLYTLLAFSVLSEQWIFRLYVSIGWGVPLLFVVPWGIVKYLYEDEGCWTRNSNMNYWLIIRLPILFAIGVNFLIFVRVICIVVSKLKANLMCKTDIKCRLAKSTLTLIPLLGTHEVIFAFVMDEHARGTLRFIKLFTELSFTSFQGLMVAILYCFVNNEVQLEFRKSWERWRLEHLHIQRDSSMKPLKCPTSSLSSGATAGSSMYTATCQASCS
Where [1] appears, read: Table 5, incretin peptides, cAMP, read-out: hGCGR_EC50.
Setting [2] is: Table 5, incretin peptides, cAMP, read-out: hGLP1R EC50.

T1 sequence (P47871 26-477): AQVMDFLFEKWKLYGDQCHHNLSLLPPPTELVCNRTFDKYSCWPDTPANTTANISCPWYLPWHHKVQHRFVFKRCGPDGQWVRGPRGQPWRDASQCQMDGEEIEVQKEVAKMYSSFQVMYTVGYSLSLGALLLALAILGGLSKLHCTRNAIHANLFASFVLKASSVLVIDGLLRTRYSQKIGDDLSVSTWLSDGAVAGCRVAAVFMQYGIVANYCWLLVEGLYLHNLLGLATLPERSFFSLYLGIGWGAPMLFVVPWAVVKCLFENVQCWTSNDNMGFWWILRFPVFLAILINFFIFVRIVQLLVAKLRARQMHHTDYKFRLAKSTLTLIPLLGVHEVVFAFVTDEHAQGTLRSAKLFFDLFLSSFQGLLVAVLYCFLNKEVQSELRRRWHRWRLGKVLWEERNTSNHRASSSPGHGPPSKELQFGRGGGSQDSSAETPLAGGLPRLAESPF
Protocol for human GCGR: Activity of the incretin peptides or the conjugates at the Glucagon receptor (GCGR) and GLP-1 receptor (GLP1R) may be measured in a cAMP activity assay as follows.
Peptides are dissolved in 100% DMSO and serially diluted to generate 10 point titrations. The peptide solutions are then transferred into 384-well assay plates (150 nL/well). Assay ready frozen cells expressing human GLP1R or human GCGR are suspended in growth media consisting of DMEM medium (GIBCO), 10% FBS (GIBCO), 1×NEAA(GIBCO), 1×P/S (GIBCO), 10 μg/mL Blasticidin (GIBCO) and 200 μg/mL Hygromycin (GIBCO). […] The cell suspensions (15 μL) are then added to the assay plates containing the peptide solutions (30,000 cells/well for human GCGR; 10,000 cells/well for human GLP1R). The cells are incubated for one hour at room temperature in the dark.
Production of cAMP may be determined using HitHunterr cAMPXS kits (DiscoverX) following the manufacturer's protocol. The plates are incubated for overnight at room temperature in the dark. Luminescence may be measured using an EnVision Multilabel plate reader (Perkin Elmer). Native GLP-1 and Glucagon (Bachem) may be used as control peptides. EC50 values may be calculated using uses a 4 parameter logistic fit based on the Levenberg-Marquardt algorithm.

In the case of `CCCCCCCCCCCCCCCC(=O)N[C@@H](CCC(=O)N[C@@H](CCC(=O)NCCCC[C@H](NC(=O)[C@](C)(CC(=O)O)NC(=O)[C@H](CO)NC(=O)[C@@H](NC(=O)[C@H](Cc1ccccc1)NC(=O)[C@@H](NC(=O)CNC(=O)[C@H](CCC(N)=O)NC(=O)[C@@H](CO)NC(=O)[C@@H](N)Cc1c[nH]cn1)[C@@H](C)O)[C@@H](C)O)C(=O)N[C@@H](CO)C(=O)N[C@@H](CCCCN)C(=O)N[C@@H](Cc1ccc(O)cc1)C(=O)N[C@@H](CC(C)C)C(=O)N[C@@H](CC(=O)O)C(=O)N[C@@H](CCC(=O)O)C(=O)N[C@@H](CCCNC(=N)N)C(=O)N[C@@H](C)C(=O)N[C@@H](C)C(=O)N[C@@H](CCC(N)=O)C(=O)N[C@@H](CC(=O)O)C(=O)N[C@@H](Cc1ccccc1)C(=O)N[C@H](C(=O)N[C@@H](CCCCN=[N+]=[N-])C(=O)N[C@@H](Cc1c[nH]c2ccccc12)C(=O)N[C@@H](CC(C)C)C(=O)N[C@@H](CCS(C)(=O)=O)C(=O)N[C@@H](CC(=O)O)C(=O)N[C@H](C(N)=O)[C@@H](C)O)C(C)C)C(=O)O)C(=O)O` [PEP32], at human GCGR, the EC50 is 0.06 nM and the GCGR/GLP1R ratio is 1.5. For the same compound, on human GLP1R, the EC50 was determined as 0.04 nM.

With `CCCCCCCCCCCCCCCC(=O)N[C@@H](CCC(=O)N[C@@H](CCC(=O)NCCCC[C@H](NC(=O)[C@H](CC(=O)O)NC(=O)[C@H](CO)NC(=O)[C@@H](NC(=O)[C@H](Cc1ccccc1)NC(=O)[C@@H](NC(=O)CNC(=O)[C@H](CCC(N)=O)NC(=O)[C@@H](CO)NC(=O)[C@@H](N)Cc1c[nH]cn1)[C@@H](C)O)[C@@H](C)O)C(=O)N[C@@H](CO)C(=O)N[C@@H](CCCCN)C(=O)N[C@@H](Cc1ccc(O)cc1)C(=O)N[C@@H](CC(C)C)C(=O)N[C@@H](CC(=O)O)C(=O)N[C@@H](CCC(=O)O)C(=O)N[C@@H](CCCNC(=N)N)C(=O)N[C@@H](C)C(=O)N[C@@H](C)C(=O)N[C@@H](CCC(N)=O)C(=O)N[C@@](C)(CC(=O)O)C(=O)N[C@@H](Cc1ccccc1)C(=O)N[C@H](C(=O)N[C@@H](CCCCN=[N+]=[N-])C(=O)N[C@@H](Cc1c[nH]c2ccccc12)C(=O)N[C@@H](CC(C)C)C(=O)N[C@@H](CCS(C)(=O)=O)C(=O)N[C@@H](CC(=O)O)C(=O)N[C@H](C(N)=O)[C@@H](C)O)C(C)C)C(=O)O)C(=O)O` [PEP34], on human GCGR, the EC50 worked out at 0.05 nM and the GCGR/GLP1R ratio is 1.0. This compound came in with an EC50 at human GLP1R of 0.05 nM.

`CCCCCCCCCCCCCCCC(=O)N[C@@H](CCC(=O)N[C@@H](CCC(=O)NCCCC[C@H](NC(=O)[C@H](CC(=O)O)NC(=O)[C@H](CO)NC(=O)[C@@H](NC(=O)[C@H](Cc1ccccc1)NC(=O)[C@@H](NC(=O)CNC(=O)[C@H](CCC(N)=O)NC(=O)[C@@H](CO)NC(=O)[C@@H](N)Cc1c[nH]cn1)[C@@H](C)O)[C@@H](C)O)C(=O)N[C@@H](CO)C(=O)N[C@@H](CCCCN)C(=O)N[C@@H](Cc1ccc(O)cc1)C(=O)N[C@@H](CC(C)C)C(=O)N[C@@H](CC(=O)O)C(=O)N[C@@H](CCC(=O)O)C(=O)N[C@@H](CCCNC(=N)N)C(=O)N[C@@H](C)C(=O)N[C@@H](C)C(=O)N[C@@H](CCC(N)=O)C(=O)N[C@@H](CC(=O)O)C(=O)N[C@@](C)(Cc1ccccc1)C(=O)N[C@H](C(=O)N[C@@H](CCCCN=[N+]=[N-])C(=O)N[C@@H](Cc1c[nH]c2ccccc12)C(=O)N[C@@H](CC(C)C)C(=O)N[C@@H](CCS(C)(=O)=O)C(=O)N[C@@H](CC(=O)O)C(=O)N[C@H](C(N)=O)[C@@H](C)O)C(C)C)C(=O)O)C(=O)O` [PEP35]: the EC50 at human GCGR (setting [1]) and on human GLP1R (setting [2]) was 0.05 nM throughout. Further, the GCGR/GLP1R ratio on human GCGR is recorded as 1.0.

On to `CCCCCCCCCCCCCCCC(=O)N[C@@H](CCC(=O)N[C@@H](CCC(=O)NCCCC[C@H](NC(=O)[C@H](CC(=O)O)NC(=O)[C@H](CO)NC(=O)[C@@H](NC(=O)[C@H](Cc1ccccc1)NC(=O)[C@@H](NC(=O)CNC(=O)[C@H](CCC(N)=O)NC(=O)[C@@H](CO)NC(=O)[C@@H](N)Cc1c[nH]cn1)[C@@H](C)O)[C@@H](C)O)C(=O)N[C@@H](CO)C(=O)N[C@@H](CCCCN)C(=O)N[C@@H](Cc1ccc(O)cc1)C(=O)N[C@@H](CC(C)C)C(=O)N[C@@H](CC(=O)O)C(=O)N[C@@H](CCC(=O)O)C(=O)N[C@@H](CCCNC(=N)N)C(=O)N[C@@H](C)C(=O)N[C@@H](C)C(=O)N[C@@H](CCC(N)=O)C(=O)N[C@@H](CC(=O)O)C(=O)N[C@@H](Cc1ccccc1)C(=O)N[C@H](C(=O)N[C@@H](CCCCN=[N+]=[N-])C(=O)N[C@@H](Cc1c[nH]c2ccccc12)C(=O)N[C@@](C)(CC(C)C)C(=O)N[C@@H](CCS(C)(=O)=O)C(=O)N[C@@H](CC(=O)O)C(=O)N[C@H](C(N)=O)[C@@H](C)O)C(C)C)C(=O)O)C(=O)O` [PEP37], for which the EC50 came to 0.06 nM on human GCGR (setting [1]) and 0.04 nM at human GLP1R (setting [2]). Moreover, the GCGR/GLP1R ratio at human GCGR is reported as 1.5.

Turning to `CSCC[C@H](NC(=O)[C@H](CC(C)C)NC(=O)[C@H](Cc1c[nH]c2ccccc12)NC(=O)[C@H](CCCCN=[N+]=[N-])NC(=O)[C@@H](NC(=O)[C@H](Cc1ccccc1)NC(=O)[C@H](CC(=O)O)NC(=O)[C@H](CCC(N)=O)NC(=O)[C@H](C)NC(=O)[C@H](C)NC(=O)[C@H](CCCNC(=N)N)NC(=O)C(C)(C)NC(=O)[C@H](CC(=O)O)NC(=O)[C@H](CC(C)C)NC(=O)[C@H](Cc1ccc(O)cc1)NC(=O)[C@H](CCCCN)NC(=O)[C@H](CO)NC(=O)[C@H](CCCCN)NC(=O)[C@H](CC(=O)O)NC(=O)[C@H](CO)NC(=O)[C@@H](NC(=O)[C@H](Cc1ccccc1)NC(=O)[C@@H](NC(=O)CNC(=O)[C@H](CCC(N)=O)NC(=O)C(C)(C)NC(=O)[C@@H](N)Cc1c[nH]cn1)[C@@H](C)O)[C@@H](C)O)C(C)C)C(=O)N[C@@H](CC(N)=O)C(=O)N[C@H](C(=O)N[C@@H](CCCCN)C(=O)N[C@@H](CCC(N)=O)C(=O)O)[C@@H](C)O` [PEP68] (H-H[Aib]QGTFTSDKSKYLD[Aib]RAAQDFV[Lys(N3)]WLMNTKQ-OH; N-terminus assumed), the EC50 worked out at 2.7 nM on human GCGR (setting [1]) and 0.07 nM at human GLP1R (setting [2]). Moreover, the GCGR/GLP1R ratio on human GCGR is given as 38.6.

As to `CC(C)C[C@H](NC(=O)[C@H](Cc1ccc(O)cc1)NC(=O)[C@H](CCCCN)NC(=O)[C@H](CO)NC(=O)[C@H](CCCCN)NC(=O)[C@H](CC(=O)O)NC(=O)[C@H](CO)NC(=O)[C@@H](NC(=O)[C@H](Cc1ccccc1)NC(=O)[C@@H](NC(=O)CNC(=O)[C@H](CCC(N)=O)NC(=O)[C@@H](CO)NC(=O)[C@@H](N)Cc1c[nH]cn1)[C@@H](C)O)[C@@H](C)O)C(=O)N[C@@H](CC(=O)O)C(=O)N[C@@H](CCC(=O)O)C(=O)N[C@@H](CCCNC(=N)N)C(=O)N[C@@H](C)C(=O)N[C@@H](C)C(=O)N[C@@H](CCC(N)=O)C(=O)N[C@@H](CC(=O)O)C(=O)N[C@@H](Cc1ccccc1)C(=O)N[C@H](C(=O)N[C@@H](CCCCN=[N+]=[N-])C(=O)N[C@@H](Cc1c[nH]c2ccccc12)C(=O)N[C@@H](CC(C)C)C(=O)N[C@@H](CC(C)C)C(=O)N[C@@H](CC(=O)O)C(=O)N[C@H](C(N)=O)[C@@H](C)O)C(C)C` [PEP69], the values for the EC50 on human GCGR and on human GLP1R were 0.31 nM and 0.16 nM, respectively. On human GCGR, the GCGR/GLP1R ratio is 1.9.

Regarding `CC(C)C[C@H](NC(=O)[C@H](Cc1ccc(O)cc1)NC(=O)[C@H](CCCCN)NC(=O)[C@H](CO)NC(=O)[C@H](CCCCN)NC(=O)[C@H](CC(=O)O)NC(=O)[C@H](CO)NC(=O)[C@@H](NC(=O)[C@H](Cc1ccccc1)NC(=O)[C@@H](NC(=O)CNC(=O)[C@H](CCC(N)=O)NC(=O)[C@@H](CO)NC(=O)[C@@H](N)Cc1c[nH]cn1)[C@@H](C)O)[C@@H](C)O)C(=O)N[C@@H](CC(=O)O)C(=O)N[C@@H](CCC(=O)O)C(=O)N[C@@H](CCCNC(=N)N)C(=O)N[C@@H](C)C(=O)N[C@@H](C)C(=O)N[C@@H](CCCCN=[N+]=[N-])C(=O)N[C@@H](CC(=O)O)C(=O)N[C@@H](Cc1ccccc1)C(=O)N[C@H](C(=O)N[C@@H](CCC(N)=O)C(=O)N[C@@H](Cc1c[nH]c2ccccc12)C(=O)N[C@@H](CC(C)C)C(=O)N[C@@H](CC(C)C)C(=O)N[C@@H](CC(=O)O)C(=O)N[C@H](C(N)=O)[C@@H](C)O)C(C)C` [PEP71], the EC50 is 0.12 nM at human GCGR and 0.06 nM on human GLP1R (setting [2]). The GCGR/GLP1R ratio on human GCGR is recorded as 2.0.

On to `CSCC[C@H](NC(=O)[C@H](CC(C)C)NC(=O)[C@H](Cc1c[nH]c2ccccc12)NC(=O)[C@H](CCC(N)=O)NC(=O)[C@@H](NC(=O)[C@H](Cc1ccccc1)NC(=O)[C@H](CC(=O)O)NC(=O)[C@H](CCC(N)=O)NC(=O)[C@H](C)NC(=O)[C@H](C)NC(=O)[C@H](CCCNC(=N)N)NC(=O)C(C)(C)NC(=O)[C@H](CC(=O)O)NC(=O)[C@H](CC(C)C)NC(=O)[C@H](Cc1ccc(O)cc1)NC(=O)[C@H](CCCCN)NC(=O)[C@H](CO)NC(=O)[C@H](CCCCN)NC(=O)[C@H](CC(=O)O)NC(=O)[C@H](CO)NC(=O)[C@@H](NC(=O)[C@H](Cc1ccccc1)NC(=O)[C@@H](NC(=O)CNC(=O)[C@H](CCC(N)=O)NC(=O)C(C)(C)NC(=O)[C@@H](N)Cc1c[nH]cn1)[C@@H](C)O)[C@@H](C)O)C(C)C)C(=O)N[C@@H](CC(N)=O)C(=O)N[C@H](C(=O)N[C@@H](CCCCN)C(=O)N[C@@H](CCC(N)=O)C(=O)N[C@@H](CCCCN=[N+]=[N-])C(N)=O)[C@@H](C)O` [PEP72], for which the EC50 on human GCGR (setting [1]) was 3.9 nM; at human GLP1R (setting [2]) it was 0.04 nM. The GCGR/GLP1R ratio at human GCGR is listed as 97.5.

As to `CCCCCCCCCCCCCCCC(=O)N[C@@H](CCC(=O)N[C@@H](CCC(=O)NCCCC[C@H](NC(=O)[C@H](CC(=O)O)NC(=O)[C@H](CO)NC(=O)[C@@H](NC(=O)[C@H](Cc1ccccc1)NC(=O)[C@@H](NC(=O)CNC(=O)[C@H](CCC(=O)O)NC(=O)[C@@H](CO)NC(=O)[C@@H](N)Cc1c[nH]cn1)[C@@H](C)O)[C@@H](C)O)C(=O)N[C@@H](CO)C(=O)N[C@@H](CCCCN)C(=O)N[C@@H](Cc1ccc(O)cc1)C(=O)N[C@@H](CC(C)C)C(=O)N[C@@H](CC(=O)O)C(=O)N[C@@H](CCC(=O)O)C(=O)N[C@@H](CCCNC(=N)N)C(=O)N[C@@H](C)C(=O)N[C@@H](C)C(=O)N[C@@H](CCC(N)=O)C(=O)N[C@@H](CC(=O)O)C(=O)N[C@@H](Cc1ccccc1)C(=O)N[C@H](C(=O)N[C@@H](CCCCN=[N+]=[N-])C(=O)N[C@@H](Cc1c[nH]c2ccccc12)C(=O)N[C@@H](CC(C)C)C(=O)N[C@@H](CC(C)C)C(=O)N[C@@H](CC(=O)O)C(=O)N[C@H](C(N)=O)[C@@H](C)O)C(C)C)C(=O)O)C(=O)O` [PEP75], at human GCGR, the EC50 was above 5 nM and the GCGR/GLP1R ratio is reported as above 72. On human GLP1R, this compound came in with an EC50 of 0.07 nM.
